Laboratory results as given in patent US20260042801A1, “COMPOSITIONS AND METHODS FOR DYE-BOUND CYCLIZED PEPTIDES FOR MEDICAL USE” (The Texas A&M University System, priority 2022, published 2026).

What was measured:
C3 = assay: Astrocyte C3 staining (fluorescent intensity); type: cell-based, mouse; conditions: astrocytes from 6-month-old male mice, 5 μM, 3 days
Method: FIGS. 4A-4D: 5c(i) induces Synapsin I production and reduces C3 and GSK-3s expression from astrocytes promoting neuron survival and neurite growth. Primary adult cortical astrocytes from 6-month-old male mice were incubated with 5 μM 5c(i) for 3 days. Graph represents mean±SEM of percent change in fluorescent intensity (Synapsin I and C3) or chemiluminescence (GSK-3β) relative to Vehicle (4A and 4D). Images represent the 4B) Vehicle and 4C) 5 μM 5c(i) treated groups stained with Synapsin I and DAPI. D) Cortical astrocytes from 6-month-old male mice were plated and treated with 5c(i) or Vehicle for 2 days. Cells were then washed and cortical neurons from 6-month-old male mice were added on top of the astrocytes. […] Scale bar=50 μm.
To determine if 5c(i) can modulate astrocytes, adult astrocytes from 6-month-old male mice were treated with 5c(i) for 3 days and stained with Synapsin I and C3 to measure changes in fluorescent intensity or western blot was conducted on the cell lysate to assess changes in GSK-3β expression (FIG. 4). […] To determine if 5c(i) treated astrocytes can directly benefit neuronal recovery, astrocytes were cultured with 5c(i) for 2 days before removing 5c(i) from the culture and plating adult neurons on top of the astrocytes for 2DIV, resulting in increased neuron survival and neurite growth. […]

[1] = mouse, in vivo
Method: 8-week-old male mice with a severe T8 contusion/compression SCI were injected IP daily with 5c(i) for 7 weeks (5 and 25 mg/kg/day). […] 7 weeks post injury, heparinized plasma was collected and 12B) alanine aminotransferase (ALT), 12C) alkaline phosphatase (ALP), 12D) aspartate aminotransferase (AST), and 12E) blood urea nitrogen (BUN) levels were assessed. […] N=6-8. Graphs show mean and SEM. # (p<0.1) * (p<0.05) ** (p<0.01) *** (p<0.001) **** (p<0.0001). Student's T-test.
For the administration of pharmaceutical agents, the vehicle was 0.6 mL/kg of 100% dimethyl sulfoxide (DMSO). 5c(i) (at 5 and 25 mg/kg/day) diluted in vehicle or vehicle alone was administered once daily through intraperitoneal (IP) injections at a volume of 0.6 mL/kg/day.
Seven weeks after injury, histological analysis was performed on livers, and toxicology screens were conducted on plasma (FIG. 12).

[2] = test system: primary adult cortical neurons; assay: Primary adult cortical neuron culture: survival and neurite outgrowth; type: cell-based, mouse; conditions: adult neurons from 6-month-old mice, 2 days with 5c(i)
Method: FIGS. 3A-3C: 5c(i) augments neuritogenesis and neuron survival. Primary adult cortical neurons from 6-month-old female mice were treated with 5c(i) for 2 days. 5c(i) was added at the time of cell plating. Cells were fixed 2 days after cell plating. 3A) Graph represents mean±SEM of percent change in neurite outgrowth per cell and number of surviving neurons. Representative images of 3B) Vehicle and 3C) 5000 nM 5c(i) treated groups. Linear regression was conducted to determine statistical significance. […] Scale bar=50 μm.
For all cell culture experiments, primary neural cells were extracted from the cortices of […] mice. The extraction, purification, and separation of neurons and glia was conducted as previously before^58 covered under patent application WO2022266431, incorporated by reference herein in its entirety. Briefly, after euthanization of mice, the brains were microdissected and placed in papain filled GENTLEMACS™ (tissue dissector) C Tubes followed by cell dissociation using the GENTLEMACS™ (tissue dissector) Octo Dissociator with Heaters with heating cuffs using the GENTLEMACS™ (tissue dissector) Program 37C_ABDK_01 protocol. After protocol completion, the contents were strained through a 70 μm cell strainer, debris and red blood cells were removed, and the remaining solution was labeled with glia specific antibodies. […]

C-DIRG-C BODIPY® (fluorescent dye) [5c(i)]
C3 expression (C3): reduction | alanine aminotransferase (ALT) [1]: does not alter | alkaline phosphatase (ALP) [1]: does not alter | aspartate aminotransferase (AST) [1]: does not alter | blood urea nitrogen (BUN) [1]: does not alter | increase in neurite outgrowth [2]: 42% | increase in neuron survival [2]: 94%
